The target in test [1] is hA2b/CHO (Homo sapiens (Human), UniProt P29275). The experiment in a line: cAMP inhibition assay in hA2b/CHO cells, 10 μM adenosine.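 Also: cells exposed to compound 30 min at 37 °C, then stimulated with adenosine a further 30 min, cAMP read after 60 min at room temperature.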 The test is classed as cell-based. Conditions: read-out: cAMP & FLIPR IC50 (nM) hA2b.
Method: (§1) hA2a/CHO, hA2b/CHO, hA3/CHO and mA2a/CHO (Genscript) were plated at 5×10^3 cells/well into 384-well polystyrene plates at the day of experiment. Compounds were pre-incubated with cells for 30 min at 37° C., 5% CO2. Then 10 μM adenosine was added to the cells and incubated for 30 min at 37° C., 5% CO2. Detection reagent (CISBIO) was added and the plates were incubated for 60 min at room temperature. The signal was captured by Envision.
In test [2] the target is mA2a/CHO (Mus musculus (Mouse), UniProt Q60613). The experiment in a line: cAMP inhibition assay in mA2a/CHO cells, 10 μM adenosine.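 Also: compounds preincubated 30 min at 37 °C before the adenosine challenge, then 30 min further stimulation, readout after 60 min detection reagent incubation at room temperature in 384-well plates.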 The test is classed as cell-based. Conditions: read-out: cAMP & FLIPR IC50 (nM) mA2a.
Method: as §1
Test [3] deals with hA2a/CHO (Homo sapiens (Human), UniProt P29274). Kind of test: cAMP inhibition assay in hA2a/CHO cells, 10 μM adenosine.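 Also: compounds added to cells 30 min ahead of adenosine, then a further 30 min at 37 °C with adenosine before cAMP detection.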 The format is cell-based. Conditions: read-out: cAMP & FLIPR IC50 (nM) hA2a.
Method: as §1
The target in test [4] is hADORA1/CHO (hA1 expressing) cells (Homo sapiens (Human), UniProt P30542). The experiment in a line: cell-based. Conditions: FLIPR inhibition, 10 μM adenosine, read-out: cAMP & FLIPR IC50 (nM) hA1.

SMILES strings stand for the structures. Where only a bound is given, the exact number is not on record here.

Drawing on US10898481B2 (priority 2018, dated 2021), this text covers IC50 for 26 compounds.

Sequence of mA2a/CHO (Q60613 whole entry): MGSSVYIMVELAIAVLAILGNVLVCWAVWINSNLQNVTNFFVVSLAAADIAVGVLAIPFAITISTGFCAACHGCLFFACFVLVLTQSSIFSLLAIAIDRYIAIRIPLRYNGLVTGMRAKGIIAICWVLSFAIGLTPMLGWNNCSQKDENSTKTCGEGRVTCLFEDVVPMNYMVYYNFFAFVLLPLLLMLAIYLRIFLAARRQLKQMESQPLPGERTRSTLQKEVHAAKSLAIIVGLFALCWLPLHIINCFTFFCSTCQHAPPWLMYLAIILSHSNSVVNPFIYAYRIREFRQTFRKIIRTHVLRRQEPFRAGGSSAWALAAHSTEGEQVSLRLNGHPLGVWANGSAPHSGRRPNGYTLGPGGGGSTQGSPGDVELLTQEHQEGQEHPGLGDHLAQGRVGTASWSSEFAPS
Sequence of hA2a/CHO (P29274 whole entry): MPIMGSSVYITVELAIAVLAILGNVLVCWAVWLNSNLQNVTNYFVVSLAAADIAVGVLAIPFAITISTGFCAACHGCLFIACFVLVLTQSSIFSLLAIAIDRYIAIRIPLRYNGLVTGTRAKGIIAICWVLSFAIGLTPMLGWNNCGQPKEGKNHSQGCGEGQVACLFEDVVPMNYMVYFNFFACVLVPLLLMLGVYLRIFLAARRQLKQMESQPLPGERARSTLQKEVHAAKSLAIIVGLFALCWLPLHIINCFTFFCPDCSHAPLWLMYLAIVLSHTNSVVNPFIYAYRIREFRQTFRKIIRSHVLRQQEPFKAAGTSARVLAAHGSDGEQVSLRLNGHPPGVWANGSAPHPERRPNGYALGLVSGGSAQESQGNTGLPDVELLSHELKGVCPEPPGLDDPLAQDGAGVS
Sequence of hA2b/CHO (P29275 whole entry): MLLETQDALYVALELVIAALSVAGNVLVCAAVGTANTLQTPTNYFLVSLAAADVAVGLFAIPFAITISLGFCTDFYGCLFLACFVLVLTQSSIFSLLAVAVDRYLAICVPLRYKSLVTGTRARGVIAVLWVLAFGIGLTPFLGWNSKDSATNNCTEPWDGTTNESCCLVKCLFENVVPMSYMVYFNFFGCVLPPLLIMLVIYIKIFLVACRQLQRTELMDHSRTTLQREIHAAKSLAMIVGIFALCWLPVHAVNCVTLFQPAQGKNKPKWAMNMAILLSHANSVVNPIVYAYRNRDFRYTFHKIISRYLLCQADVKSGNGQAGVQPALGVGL
Sequence of hADORA1/CHO (hA1 expressing) cells (P30542 whole entry): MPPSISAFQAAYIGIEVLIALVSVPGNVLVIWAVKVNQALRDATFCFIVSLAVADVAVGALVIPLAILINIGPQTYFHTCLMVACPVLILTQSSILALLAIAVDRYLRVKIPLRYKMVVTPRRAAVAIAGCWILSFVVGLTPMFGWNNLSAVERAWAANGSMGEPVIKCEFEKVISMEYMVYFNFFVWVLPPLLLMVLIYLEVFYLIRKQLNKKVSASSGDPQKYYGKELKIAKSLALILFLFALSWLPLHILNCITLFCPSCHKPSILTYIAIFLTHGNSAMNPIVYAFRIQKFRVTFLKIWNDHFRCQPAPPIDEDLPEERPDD

By IC50 is commonly meant the concentration needed to halve the response being measured. Consider `Cc1cnc2ccc(-c3nc(C(=O)NCC4CCCN4C)c(N)nc3-c3ncco3)cn12` (single isomer, unassigned) [Example 120], for which the IC50 in test [1] was 775 nM; in test [2], 167 nM.

`Cc1cnc2ccc(-c3nc(C(=O)NCC4CCCN4C)c(N)nc3-c3ncco3)cn12` (single isomer, unassigned) [Example 121]: the IC50 in test [1] came to 747 nM; in test [2], 204 nM.

In the case of `Cc1cnc2ccc(-c3nc(C(=O)NCC4CCCCN4C)c(N)nc3-c3ncco3)cn12` (single isomer, unassigned; isomer 2) [Example 125, 3-amino-6-(3-methylimidazo[1,2-a]pyridin-6-yl)-N-((1-methylpiperidin-2-yl)methyl)-5-(oxazol-2-yl)pyrazine-2-carboxamide (isomer 2)], the IC50 in test [1] is no less than 10000 nM; in test [3], 1440 nM; in test [2] it was no less than 10000 nM.

Turning to `Cc1cc(-c2nc(C(=O)NCc3ncccc3F)c(N)nc2-c2ccc(F)cc2)cc(C)n1` [Example 1, 3-amino-6-(2,6-dimethylpyridin-4-yl)-5-(4-fluorophenyl)-N-((3-fluoropyridin-2-yl)methyl)pyrazine-2-carboxamide], the IC50 in test [1] is no less than 10000 nM; in test [3] it was 151 nM; in test [2], 1060 nM.

As to `Cc1cc(-c2nc(C(=O)NCc3ccccc3C(F)(F)F)c(N)nc2-c2ccc(F)cc2)cc(C)n1` [Example 53, 3-amino-6-(2,6-dimethylpyridin-4-yl)-5-(4-fluorophenyl)-N-(2-(trifluoromethyl)benzyl)pyrazine-2-carboxamide], the figures for the IC50 in test [1], in test [3] and in test [2] were no less than 10000 nM, 60 nM and 529 nM, respectively.

Turning to `Cc1ccn(-c2nc(N)c(C(=O)Nc3ccccc3OC(F)F)nc2-c2ccc(=O)n(C)c2)n1` [Example 59, 3-amino-N-(2-(difluoromethoxy)phenyl)-5-(3-methyl-1H-pyrazol-1-yl)-6-(1-methyl-6-oxo-1,6-dihydropyridin-3-yl)pyrazine-2-carboxamide], the IC50 in test [1] was no less than 10000 nM; in test [3], 29 nM; in test [2], 66 nM.

For `Cc1cc(-c2nc(C(=O)Nc3ccccc3OC(F)F)c(N)nc2-n2ccc(C)n2)cc(N)n1` [Example 60, 3-amino-6-(2-amino-6-methylpyridin-4-yl)-N-(2-(difluoromethoxy)phenyl)-5-(3-methyl-1H-pyrazol-1-yl)pyrazine-2-carboxamide], the IC50 in test [1] was no less than 10000 nM; in test [3], 24 nM; in test [2], 150 nM.

As for `Cc1cc(-c2nc(C(=O)NCc3c(F)cccc3F)c(N)nc2-c2ccc(C)o2)cc(C)n1` [Example 62, 3-amino-N-(2,6-difluorobenzyl)-6-(2,6-dimethylpyridin-4-yl)-5-(5-methylfuran-2-yl)pyrazine-2-carboxamide], the IC50 in test [1] is no less than 10000 nM; in test [3], 1.8 nM; in test [2] it was 28 nM.

Take `COc1ccccc1CNC(=O)c1nc(-c2cc(C)nc(C)c2)c(-c2cnn(C)c2)nc1N` [Example 63, 3-amino-6-(2,6-dimethylpyridin-4-yl)-N-(2-methoxybenzyl)-5-(1-methyl-1H-pyrazol-4-yl)pyrazine-2-carboxamide]: the IC50 in test [1] is no less than 10000 nM; in test [3], 33 nM; in test [2], 601 nM.

In the case of `Cc1cc(-c2nc(C(=O)NCc3c(F)cccc3F)c(N)nc2-c2cnn(C)c2)cc(C)n1` [Example 64, 3-amino-N-(2,6-difluorobenzyl)-6-(2,6-dimethylpyridin-4-yl)-5-(1-methyl-1H-pyrazol-4-yl)pyrazine-2-carboxamide], the IC50 in test [1] was no less than 10000 nM; in test [3], 52 nM; in test [2], no less than 10000 nM.

Consider `Cc1cc(-c2nc(C(=O)NCc3ccccc3OC(F)(F)F)c(N)nc2-c2ccc(F)cc2)cc(C)n1` [Example 65, 3-amino-6-(2,6-dimethylpyridin-4-yl)-5-(4-fluorophenyl)-N-(2-(trifluoromethoxy)benzyl)pyrazine-2-carboxamide], for which the values for the IC50 in test [3] and in test [2] were 19 nM and 50 nM, respectively.

In the case of `COc1ncccc1CNC(=O)c1nc(-c2cc(C)nc(C)c2)c(-c2ccc(F)cc2)nc1N` [Example 66, 3-amino-6-(2,6-dimethylpyridin-4-yl)-5-(4-fluorophenyl)-N-((2-methoxypyridin-3-yl)methyl)pyrazine-2-carboxamide], the IC50 is no less than 10000 nM in test [1], 107 nM in test [3] and 730 nM in test [2].

As to `COc1ccccc1CNC(=O)c1nc(-c2ccc(=O)n(C)c2)c(-c2ccc(F)cc2)nc1N` [Example 67, 3-amino-5-(4-fluorophenyl)-N-(2-methoxybenzyl)-6-(1-methyl-6-oxo-1,6-dihydropyridin-3-yl)pyrazine-2-carboxamide], the 50% inhibitory concentration (IC50) in test [1] is 67 nM; in test [3], 6.4 nM; in test [2], 25 nM.

For the compound `COc1ccccc1CNC(=O)c1nc(-c2cc(C)nc(Cl)c2)c(-c2ccc(F)cc2)nc1N` [Example 68, 3-amino-6-(2-chloro-6-methylpyridin-4-yl)-5-(4-fluorophenyl)-N-(2-methoxy-benzyl)pyrazine-2-carboxamide], the IC50 in test [1] is 952 nM; in test [3], 7.5 nM; in test [2], 64 nM.

On to `CCn1cc(-c2nc(C(=O)NCc3ccccc3OC)c(N)nc2-c2ccc(F)cc2)ccc1=O` [Example 69, 3-amino-6-(1-ethyl-6-oxo-1,6-dihydro-pyridin-3-yl)-5-(4-fluorophenyl)-N-(2-methoxybenzyl)pyrazine-2-carboxamide], for which the concentration for half-maximal inhibition (IC50) in test [1] is 213 nM; in test [3] it was 15 nM; in test [2], 20 nM.

In the case of `COc1ccccc1CNC(=O)c1nc(-c2ccc(=O)n(C(C)C)c2)c(-c2ccc(F)cc2)nc1N` [Example 70, 3-amino-5-(4-fluorophenyl)-6-(1-isopropyl-6-oxo-1,6-dihydropyridin-3-yl)-N-(2-methoxybenzyl)pyrazine-2-carboxamide], the results for the IC50 in test [1], in test [3] and in test [2] were no less than 10000 nM, 10 nM and 5.2 nM, respectively.

On to `Nc1nc(-c2ccc(F)cc2)c(-c2ccc(=O)n(C3COC3)c2)nc1C(=O)NCc1c(F)cccc1F` [Example 77], for which the IC50 in test [1] was 358 nM; in test [3], 17 nM; in test [2], 26 nM.

With `COc1ccccc1CNC(=O)c1nc(-c2cc(C)c(=O)n(C)c2)c(-c2ccc(F)cc2)nc1N` [Example 82, 3-amino-6-(1,5-dimethyl-6-oxo-1,6-dihydropyridin-3-yl)-5-(4-fluorophenyl)-N-(2-methoxybenzyl)pyrazine-2-carboxamide], the IC50 in test [1] was found to be 276 nM; in test [3] it was 19 nM; in test [2], 59 nM.

Turning to `COc1ccccc1CNC(=O)c1nc(-c2cc(C)nc(C)c2)c(-c2ccc(F)cc2)nc1N` [Example 89, 3-amino-6-(2,6-dimethylpyridin-4-yl)-5-(4-fluorophenyl)-N-(2-methoxybenzyl)pyrazine-2-carboxamide], the IC50 in test [1] stood at 5620 nM; in test [3], 17 nM; in test [2] it was 297 nM.

As to `COc1cccc(F)c1CNC(=O)c1nc(-c2cc(C)nc(C)c2)c(-c2ccc(F)cc2)nc1N` [Example 90, 3-amino-6-(2,6-dimethylpyridin-4-yl)-N-(2-fluoro-6-methoxybenzyl)-5-(4-fluorophenyl)pyrazine-2-carboxamide], the results for the concentration for half-maximal inhibition (IC50) in test [1], in test [3] and in test [2] were 781 nM, 4 nM and 95 nM, respectively.

On to `Cc1cc(-c2nc(C(=O)NCc3ccccc3OC(F)F)c(N)nc2-c2ccc(F)cc2)cc(C)n1` [Example 91, 3-amino-N-(2-(difluoromethoxy)benzyl)-6-(2,6-dimethylpyridin-4-yl)-5-(4-fluorophenyl)pyrazine-2-carboxamide], for which the half-maximal inhibitory concentration (IC50) was determined as 1420 nM in test [1], 8.9 nM in test [3] and 72 nM in test [2].

As to `COc1ccc(F)cc1CNC(=O)c1nc(-c2cc(C)nc(C)c2)c(-c2ccc(F)cc2)nc1N` [Example 92, 3-amino-6-(2,6-dimethylpyridin-4-yl)-N-(5-fluoro-2-methoxybenzyl)-5-(4-fluorophenyl)pyrazine-2-carboxamide], the IC50 in test [1] is no less than 10000 nM; in test [3], 41 nM; in test [2] it was 216 nM.

Regarding `CNCCOc1cccnc1CNC(=O)c1nc(-c2ccc3ncn(C)c3c2)c(-c2ccc(F)cc2)nc1N` [Example 115, 3-amino-5-(4-fluorophenyl)-6-(1-methyl-1H-1,3-benzodiazol-6-yl)-N-([3-[2-(methylamino)ethoxy]pyridin-2-yl]methyl)pyrazine-2-carboxamide], the IC50 was 596 nM in test [1] and 12 nM in test [2].

With `Cc1cnc2ccc(-c3nc(C(=O)NC[C@H]4CCCN4C)c(N)nc3-c3ccc(F)cc3)cn12` [Example 138, 3-amino-5-(4-fluorophenyl)-6-[3-methylimidazo[1,2-a]pyridin-6-yl]-N-[[(2R)-1-methylpyrrolidin-2-yl]methyl]pyrazine-2-carboxamide], the results for the half-inhibitory concentration (IC50) in test [1] and in test [2] were 959 nM and 70 nM, respectively.

On to `Cc1cnc2ccc(-c3nc(C(=O)NC[C@@H]4CCCN4C)c(N)nc3-c3ccc(F)cc3)cn12` [Example 139, (S)-3-amino-5-(4-fluorophenyl)-6-(3-methylimidazo[1,2-a]pyridin-6-yl)-N-((1-methylpyrrolidin-2-yl)methyl) pyrazine-2-carboxamide], for which the half-maximal inhibitory concentration (IC50) came out at 932 nM in test [1] and 66 nM in test [2].

On to `Cc1cnc2ccc(-c3nc(CNC(=O)[C@H]4CCCN4C)c(N)nc3-c3cccc(F)c3)cn12` [Example 278, (R)—N-((3-amino-5-(3-fluorophenyl)-6-(3-methylimidazo[1,2-a]pyridin-6-yl)pyrazin-2-yl)methyl)-1-methylpyrrolidine-2-carboxamide], for which the IC50 came out at 12 nM in test [4] and 0.4 nM in test [3].
